Results taken from PubChem BioAssay AID2060624 (Molecular Pharmacology Branch, DTP, NCI, 2025).

System: 217524-143-R1-J4-PDC spheroids with HUVEC/MSC, viability
Experiment: Anticancer human tumor 217524-143-R1-J4-PDC patient-derived pancreatic carcinoma cell line growth inhibition [CLK]
Settings: for IC50: curve of first compound; for viability, T/C: stronger effect = lower value
How it was run: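 Multi-cell-type spheroids combined patient-derived tumor cells with HUVEC endothelial cells and human mesenchymal stem cells. Paired agents were dosed in half-log steps down from about clinical Cmax, or from 10 microM where Cmax was unknown.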

[1] = second compound 0.0316 µM, first compound 0.0316 µM
[2] = second compound 0.0316 µM, first compound 0.1 µM
[3] = second compound 0.0316 µM, first compound 0.316 µM
[4] = second compound 0.0316 µM, first compound 1 µM
[5] = second compound 0.0316 µM, first compound 3.16 µM
[6] = second compound 0.0316 µM, first compound 10 µM
[7] = second compound 0.1 µM, first compound 0.0316 µM
[8] = second compound 0.1 µM, first compound 0.1 µM
[9] = second compound 0.1 µM, first compound 0.316 µM
[10] = second compound 0.1 µM, first compound 1 µM
[11] = second compound 0.1 µM, first compound 3.16 µM
[12] = second compound 0.1 µM, first compound 10 µM
[13] = second compound 0.316 µM, first compound 0.0316 µM
[14] = second compound 0.316 µM, first compound 0.1 µM
[15] = second compound 0.316 µM, first compound 0.316 µM
[16] = second compound 0.316 µM, first compound 1 µM
[17] = second compound 0.316 µM, first compound 3.16 µM
[18] = second compound 0.316 µM, first compound 10 µM
[19] = second compound 1 µM, first compound 0.0316 µM
[20] = second compound 1 µM, first compound 0.1 µM
[21] = second compound 1 µM, first compound 0.316 µM
[22] = second compound 1 µM, first compound 1 µM
[23] = second compound 1 µM, first compound 3.16 µM
[24] = second compound 1 µM, first compound 10 µM
[25] = second compound 3.16 µM, first compound 0.0316 µM
[26] = second compound 3.16 µM, first compound 0.1 µM
[27] = second compound 3.16 µM, first compound 0.316 µM
[28] = second compound 3.16 µM, first compound 1 µM
[29] = second compound 3.16 µM, first compound 3.16 µM
[30] = second compound 3.16 µM, first compound 10 µM
[31] = second compound 10 µM, first compound 0.0316 µM
[32] = second compound 10 µM, first compound 0.1 µM
[33] = second compound 10 µM, first compound 0.316 µM
[34] = second compound 10 µM, first compound 1 µM
[35] = second compound 10 µM, first compound 3.16 µM
[36] = second compound 10 µM, first compound 10 µM
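Further: spheroids exposed to agents for seven days before reading.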
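Wherever viability, T/C is given: 100% = DMSO vehicle control viability.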

In the case of `C=CC(=O)Nc1cc(Nc2nccc(-c3cn(C)c4ccccc34)n2)c(OC)cc1N(C)CCN(C)C` + CNC(=O)c1ccc(Nc2nc(OC3CCCC3)c3c(-c4ccc5nc(C)oc5c4)c[nH]c3n2)c(OC)c1, the IC50 (second compound 0.0316 µM) is reported as 61.3 nM, the IC50 (second compound 0.1 µM) is reported as < 0.949 nM and the IC50 (second compound 0.316 µM) is reported as < 0.949 nM. For the same molecule, the IC50 (second compound 1 µM) was < 0.949 nM, the IC50 (second compound 3.16 µM) was < 0.949 nM and the IC50 (second compound 10 µM) was < 0.949 nM. The viability, T/C (second compound 0.0316 µM, first compound 0.000949 µM) was 92%, the viability, T/C (second compound 0.0316 µM, first compound 0.003 µM) was 83.9% and the viability, T/C (second compound 0.0316 µM, first compound 0.00949 µM) was 66.6%. It also gave a viability, T/C (second compound 0.0316 µM, first compound 0.03 µM) of 64.7%, a viability, T/C (second compound 0.0316 µM, first compound 0.0949 µM) of 41.2% and a viability, T/C (second compound 0.0316 µM, first compound 0.3 µM) of 31.4%. For the same molecule, the viability, T/C (second compound 0.1 µM, first compound 0.000949 µM) was 47.9%, the viability, T/C (second compound 0.1 µM, first compound 0.003 µM) was 38.6% and the viability, T/C (second compound 0.1 µM, first compound 0.00949 µM) was 41.9%. The viability, T/C (second compound 0.1 µM, first compound 0.03 µM) was 31.2%, the viability, T/C (second compound 0.1 µM, first compound 0.0949 µM) was 22% and the viability, T/C (second compound 0.1 µM, first compound 0.3 µM) was 17.1%. It also gave a viability, T/C (second compound 0.316 µM, first compound 0.000949 µM) of 39.3%, a viability, T/C (second compound 0.316 µM, first compound 0.003 µM) of 39.4% and a viability, T/C (second compound 0.316 µM, first compound 0.00949 µM) of 34%. For the same molecule, the viability, T/C (second compound 0.316 µM, first compound 0.03 µM) was 28.7%, the viability, T/C (second compound 0.316 µM, first compound 0.0949 µM) was 16% and the viability, T/C (second compound 0.316 µM, first compound 0.3 µM) was 16%. For the same molecule, the viability, T/C (second compound 1 µM, first compound 0.000949 µM) was 31.5%, the viability, T/C (second compound 1 µM, first compound 0.003 µM) was 28.3% and the viability, T/C (second compound 1 µM, first compound 0.00949 µM) was 25.9%. The viability, T/C (second compound 1 µM, first compound 0.03 µM) was 18%, the viability, T/C (second compound 1 µM, first compound 0.0949 µM) was 13.3% and the viability, T/C (second compound 1 µM, first compound 0.3 µM) was 9.6%. It also gave a viability, T/C (second compound 3.16 µM, first compound 0.000949 µM) of 31.4%, a viability, T/C (second compound 3.16 µM, first compound 0.003 µM) of 28.3% and a viability, T/C (second compound 3.16 µM, first compound 0.00949 µM) of 24.9%. The viability, T/C (second compound 3.16 µM, first compound 0.03 µM) was 19.2%, the viability, T/C (second compound 3.16 µM, first compound 0.0949 µM) was 12.5% and the viability, T/C (second compound 3.16 µM, first compound 0.3 µM) was 8.29%. It also gave a viability, T/C (second compound 10 µM, first compound 0.000949 µM) of 26.6%, a viability, T/C (second compound 10 µM, first compound 0.003 µM) of 22.3% and a viability, T/C (second compound 10 µM, first compound 0.00949 µM) of 24.7%. For the same molecule, the viability, T/C (second compound 10 µM, first compound 0.03 µM) was 20.1%, the viability, T/C (second compound 10 µM, first compound 0.0949 µM) was 13% and the viability, T/C (second compound 10 µM, first compound 0.3 µM) was 9.91%.

In the case of `CC(Nc1ccc2c(c1)OCCn1cc(N3C(=O)OCC3C(F)F)nc1-2)C(N)=O` (stereo not drawn) + CNC(=O)c1ccc(Nc2nc(OC3CCCC3)c3c(-c4ccc5nc(C)oc5c4)c[nH]c3n2)c(OC)c1, the IC50 (second compound 0.0316 µM) is reported as 55.8 nM, the IC50 (second compound 0.1 µM) is reported as < 31.6 nM and the IC50 (second compound 0.316 µM) is reported as < 31.6 nM. For the same molecule, the IC50 (second compound 1 µM) was < 31.6 nM, the IC50 (second compound 3.16 µM) was < 31.6 nM and the IC50 (second compound 10 µM) was < 31.6 nM. For the same molecule, the viability, T/C [1] was 63.3%, the viability, T/C [2] was 36.5% and the viability, T/C [3] was 15.6%. For the same molecule, the viability, T/C [4] was 8.68%, the viability, T/C [5] was 6.12% and the viability, T/C [6] was 4.83%. The viability, T/C [7] was 31.9%, the viability, T/C [8] was 20.7% and the viability, T/C [9] was 11.4%. The viability, T/C [10] was 7.98%, the viability, T/C [11] was 5.53% and the viability, T/C [12] was 4.2%. It also gave a viability, T/C [13] of 24.7%, a viability, T/C [14] of 13.8% and a viability, T/C [15] of 7.07%. The viability, T/C [16] was 4.72%, the viability, T/C [17] was 3.59% and the viability, T/C [18] was 3.01%. It also gave a viability, T/C [19] of 16.8%, a viability, T/C [20] of 10.2% and a viability, T/C [21] of 5.1%. It also gave a viability, T/C [22] of 3.22%, a viability, T/C [23] of 3.05% and a viability, T/C [24] of 2.02%. For the same molecule, the viability, T/C [25] was 17.7%, the viability, T/C [26] was 9.35% and the viability, T/C [27] was 4.79%. The viability, T/C [28] was 3.52%, the viability, T/C [29] was 2.61% and the viability, T/C [30] was 2.12%. The viability, T/C [31] was 18.6%, the viability, T/C [32] was 10.6% and the viability, T/C [33] was 6.17%. For the same molecule, the viability, T/C [34] was 2.83%, the viability, T/C [35] was 3.46% and the viability, T/C [36] was 2.14%.

`CCN1CCN(Cc2ccc(Nc3ncc(F)c(-c4cc(F)c5nc(C)n(C(C)C)c5c4)n3)nc2)CC1` + CNC(=O)c1ccc(Nc2nc(OC3CCCC3)c3c(-c4ccc5nc(C)oc5c4)c[nH]c3n2)c(OC)c1 was tested, and the IC50 (second compound 0.0316 µM) was 133 nM, the IC50 (second compound 0.1 µM) was < 3.16 nM and the IC50 (second compound 0.316 µM) was < 3.16 nM. The IC50 (second compound 1 µM) was < 3.16 nM, the IC50 (second compound 3.16 µM) was < 3.16 nM and the IC50 (second compound 10 µM) was < 3.16 nM. For the same molecule, the viability, T/C (second compound 0.0316 µM, first compound 0.00316 µM) was 84.8%, the viability, T/C (second compound 0.0316 µM, first compound 0.01 µM) was 71.2% and the viability, T/C [1] was 68.4%. For the same molecule, the viability, T/C [2] was 52.4%, the viability, T/C [3] was 40% and the viability, T/C [4] was 38.4%. The viability, T/C (second compound 0.1 µM, first compound 0.00316 µM) was 50.3%, the viability, T/C (second compound 0.1 µM, first compound 0.01 µM) was 42% and the viability, T/C [7] was 35.6%. It also gave a viability, T/C [8] of 27.8%, a viability, T/C [9] of 37.2% and a viability, T/C [10] of 36%. For the same molecule, the viability, T/C (second compound 0.316 µM, first compound 0.00316 µM) was 46.8%, the viability, T/C (second compound 0.316 µM, first compound 0.01 µM) was 34.8% and the viability, T/C [13] was 30.8%. For the same molecule, the viability, T/C [14] was 25.7%, the viability, T/C [15] was 30.5% and the viability, T/C [16] was 32%. It also gave a viability, T/C (second compound 1 µM, first compound 0.00316 µM) of 28.4%, a viability, T/C (second compound 1 µM, first compound 0.01 µM) of 26.2% and a viability, T/C [19] of 28.5%. The viability, T/C [20] was 25.2%, the viability, T/C [21] was 25.2% and the viability, T/C [22] was 26.3%. The viability, T/C (second compound 3.16 µM, first compound 0.00316 µM) was 25.3%, the viability, T/C (second compound 3.16 µM, first compound 0.01 µM) was 24.8% and the viability, T/C [25] was 23.9%. The viability, T/C [26] was 21.1%, the viability, T/C [27] was 21.6% and the viability, T/C [28] was 22.2%. For the same molecule, the viability, T/C (second compound 10 µM, first compound 0.00316 µM) was 24.3%, the viability, T/C (second compound 10 µM, first compound 0.01 µM) was 23% and the viability, T/C [31] was 23.8%. The viability, T/C [32] was 21.9%, the viability, T/C [33] was 21.4% and the viability, T/C [34] was 26.4%.

In the case of `Nc1ccccc1NC(=O)c1ccc(CNC(=O)OCc2cccnc2)cc1` + CNC(=O)c1ccc(Nc2nc(OC3CCCC3)c3c(-c4ccc5nc(C)oc5c4)c[nH]c3n2)c(OC)c1, the IC50 (second compound 0.0316 µM) is reported as 4960 nM, the IC50 (second compound 0.1 µM) is reported as 3850 nM and the IC50 (second compound 0.316 µM) is reported as < 31.6 nM. The IC50 (second compound 1 µM) was < 31.6 nM, the IC50 (second compound 3.16 µM) was < 31.6 nM and the IC50 (second compound 10 µM) was < 31.6 nM. It also gave a viability, T/C [1] of 109%, a viability, T/C [2] of 99% and a viability, T/C [3] of 97.3%. For the same molecule, the viability, T/C [4] was 87.7%, the viability, T/C [5] was 59.2% and the viability, T/C [6] was 34%. It also gave a viability, T/C [7] of 50.3%, a viability, T/C [8] of 50.2% and a viability, T/C [9] of 57.3%. It also gave a viability, T/C [10] of 62.1%, a viability, T/C [11] of 53% and a viability, T/C [12] of 32%. The viability, T/C [13] was 37.9%, the viability, T/C [14] was 43% and the viability, T/C [15] was 47.8%. For the same molecule, the viability, T/C [16] was 60.5%, the viability, T/C [17] was 53.2% and the viability, T/C [18] was 29.9%. The viability, T/C [19] was 35.8%, the viability, T/C [20] was 35.9% and the viability, T/C [21] was 49.5%. The viability, T/C [22] was 46.2%, the viability, T/C [23] was 38.4% and the viability, T/C [24] was 22.3%. It also gave a viability, T/C [25] of 33.1%, a viability, T/C [26] of 30.3% and a viability, T/C [27] of 34.6%. It also gave a viability, T/C [28] of 45%, a viability, T/C [29] of 40.3% and a viability, T/C [30] of 19.3%. For the same molecule, the viability, T/C [31] was 30.4%, the viability, T/C [32] was 25.9% and the viability, T/C [33] was 39.4%. It also gave a viability, T/C [34] of 38.6%, a viability, T/C [35] of 37.4% and a viability, T/C [36] of 13.3%.
